Patent US11442059B2, “Method for treating a chronic itch condition by administering small molecule MrgprX4 antagonists” (The Johns Hopkins University, priority 2017, dated 2022)
“And” between values parts separate entries of the source, which are not always exact repeats. Equal entries are not always repeated. One block for each compound: values may come before it. No end group written: not given here.

Experiments:
[1] = target: T1, MRGPRX3 (Homo sapiens, UniProt Q96LB0); assay: Ca2+ response of HEK cells expressing MRGPRX3; format: cell-based
T1 construct: expressed in transfected cells; host or cells: HEK cells

[2] = tested on: human keratinocytes; assay: Ca2+ response of primary human keratinocytes; format: cell-based
[3] = target: T2, MrgprA6 (Mus musculus, UniProt Q91ZC6); assay: Ca2+ response of cells expressing mouse MrgprA6; format: cell-based
T2 construct: expressed in transfected cells; host or cells: HEK293 (transient, pcDNA3.1)
T2 sequence (Q91ZC6 1-301): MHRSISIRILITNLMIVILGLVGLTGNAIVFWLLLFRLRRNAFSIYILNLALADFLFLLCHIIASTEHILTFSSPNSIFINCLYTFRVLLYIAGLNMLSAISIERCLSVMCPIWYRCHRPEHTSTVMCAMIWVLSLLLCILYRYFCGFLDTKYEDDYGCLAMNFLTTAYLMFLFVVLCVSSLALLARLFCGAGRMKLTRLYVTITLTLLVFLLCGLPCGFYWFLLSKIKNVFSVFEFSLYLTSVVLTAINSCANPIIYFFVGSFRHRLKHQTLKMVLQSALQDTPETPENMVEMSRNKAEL

[4] = tested on: MrgprA1, A4, A12, B3, and B6; assay: Ca2+ response of cells expressing other keratinocyte Mrgprs; format: cell-based, mouse
[5] = target: T3, MrgprA1 (Mus musculus, UniProt Q91WW5); assay: FLIPR calcium assay (Flexstation3), HEK cells stably expressing MrgprA1; format: cell-based; details: HEK cells, FLIPR calcium dye, FIG. 18A
T3 construct: expressed in transfected cells; whole cells or crude membrane fraction
T3 sequence (Q91WW5 1-304): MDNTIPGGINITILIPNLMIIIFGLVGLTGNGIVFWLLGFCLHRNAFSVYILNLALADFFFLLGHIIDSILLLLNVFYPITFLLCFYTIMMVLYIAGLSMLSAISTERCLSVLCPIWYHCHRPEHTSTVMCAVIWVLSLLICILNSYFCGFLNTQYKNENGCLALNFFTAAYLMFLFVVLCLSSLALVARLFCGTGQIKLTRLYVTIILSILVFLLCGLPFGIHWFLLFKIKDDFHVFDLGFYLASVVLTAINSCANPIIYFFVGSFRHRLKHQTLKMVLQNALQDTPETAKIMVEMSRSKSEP
Description: (§1) EC50s were calculated using HEK cells stably expressing either MrgprA1 or MrgprX4. Cells were loaded with FLIPR calcium imaging dye, and a Flexstation3 machine (Molecular Devices) was used for reading changes in fluorescence. Wells were run in triplicate, and all values from each plate were normalized to the highest responding well. […] The x-axis depicts a modified logarithmic scale. […] FIG. 18B is a graph depicting the EC50 for MrgprX4 for bilirubin is approximately 3 μM.

[6] = target: T3, MrgprA1; assay: Fura 2-AM calcium imaging, EC50 and IC50 determinations, MRGPRA1 HEK293 cells; format: cell-based; details: HEK293 cells, Fura 2-AM; interval [96, 220]; read-out: EC50 calcium response MRGPRA1
Description: (§2) Cells were imaged in calcium imaging buffer (CIB; 10 mM HEPES, 1.2 mM NaHCO3, 130 mM NaCl, 3 mM KCl, 2.5 mM CaCl2, 0.6 mM MgCl2, 20 mM glucose, and 20 mM sucrose at pH 7.4 and 290-300 mOsm). To monitor changes in intracellular [Ca^2+] ([Ca^2+]i), cells were loaded with either Fura 2-AM (HEK293 cells) or Fluo 4-AM (DRG neurons and mast cells) for 30 min in the dark at 37° C. in CIB just prior to imaging. With Fura 2-AM, emission at 510 nm was monitored from excitation at both 340 nm and 380 nm. With Fluo 4-AM, emission at 520 nm was monitored from excitation at 488 nm. Cells were identified as responding if the intracellular [Ca^2+] rose by either 50% compared to baseline or 50% compared to the [Ca^2+]i change assayed during addition of 50 mM KCl (neurons only). Damaged, detached, high-baseline, and motion-activated cells were excluded from analysis.
(§3) In initial screens, HEK293 cells stably expressing the murine G-protein alpha-subunit Gα15, a unique Gα protein that non-selectively couples a large variety of GPCRs to phospholipase C^30, were plated on poly-D-lysine-coated coverslips and transiently transfected with constructs encoding the MRGRPR of interest. 12-24 h later, cells were loaded with the Fura 2-AM. Unless otherwise specified, compounds were perfused into the imaging chamber for approximately thirty seconds after a baseline period was established. Response was then monitored at 5 s intervals for an additional 60 s.
(§4) HEK293 cells stably expressing either MRGPRA1, MRGPRX4, and MRGRPC11 were seeded in poly-D-lysine-coated 96-well plates at 10,000 cells/well. Cells were loaded with Fura 2-AM, washed twice, and maintained in CIB. Haem metabolites were freshly dissolved in DMSO in dim light and then diluted into a buffer comprised of 20 mM Tris and 150 mM NaCl at pH 8.8. Potential changes in pH were evaluated prior to each experiment. EC50 values were determined from dose-responses performed in triplicate, repeated 2-4 times. To determine potential antagonism by QWF against bilirubin, cells were treated with varying doses of QWF for 1 min in CIB prior to application of agonist.

[7] = target: T3, MrgprA1; assay: Microscale thermophoresis binding assay, MRGPRA1
Description: (§5) Binding isotherms for MRGPRA1, MRGPRX4, and MRGRPC11 towards various ligands were determined by microscale thermophoresis with the NanoTemper monolith NT.115 instrument^27. Ligands were pre-incubated with 10 μM of the GFP-tagged receptor of interest for 5 minutes at room temperature in binding buffer (20 mM Tris and 150 mM NaCl at pH 8.8). Receptors were crudely purified as a membrane fraction from cells stably expressing the receptor^45. Haem metabolites were freshly dissolved in 0.1 M NaOH in dim light and then diluted into assay buffer. Lyophilized BAMS-22 was dissolved in binding buffer. The pH of each ligand was evaluated prior to incubation with a receptor. Samples were loaded into NT.115 Hydrophobic-Treated Capillaries from NanoTemper. Microscale thermophoretic experiments were executed using 20% LED power and 15% MST power. KDs were calculated using the law of mass action with data from three independent experiments. Binding between bilirubin and receptors was evaluated purely thermophoretically, whereas binding between BAMS-22 and MRGPRC11 was evaluated by T-Jump. Samples with dramatic deviations in initial fluorescence were excluded.

[8] = tested on: DRG neurons; assay: Calcium imaging of dissociated DRG neurons; format: cell-based, mouse; details: Venn diagram FIG. 30A; Overlap=13
[9] = tested on: mice; assay: Acute itch behaviour after injection (scratching bouts); format: in vivo, mouse; details: bilirubin injection
[10] = target: T4, MRGPRX4 (Homo sapiens, UniProt Q96LA9); assay: FLIPR calcium assay (Flexstation3), HEK cells stably expressing MrgprX4; format: cell-based; set-up: expressed in transfected cells; whole cells or crude membrane fraction; details: FLIPR calcium dye, FIG. 18B
Description: as §1

[11] = target: T4, MRGPRX4; assay: Fura 2-AM calcium imaging, EC50 determinations, MRGPRX4 HEK293 cells; format: cell-based; set-up: expressed in transfected cells; whole cells or crude membrane fraction; details: HEK293 cells, Fura 2-AM; interval [44, 87]; read-out: EC50 calcium response MRGPRX4
Description: as §2, §3
as §4, with “To determine potential antagonism by QWF against bilirubin, cells were treated with varying doses of QWF for 1 min in CIB prior to application of agonist.” left out

[12] = target: T4, MRGPRX4; assay: Microscale thermophoresis binding assay, MRGPRX4; set-up: expressed in transfected cells; whole cells or crude membrane fraction
Description: as §5

T4 sequence (Q96LA9 whole entry): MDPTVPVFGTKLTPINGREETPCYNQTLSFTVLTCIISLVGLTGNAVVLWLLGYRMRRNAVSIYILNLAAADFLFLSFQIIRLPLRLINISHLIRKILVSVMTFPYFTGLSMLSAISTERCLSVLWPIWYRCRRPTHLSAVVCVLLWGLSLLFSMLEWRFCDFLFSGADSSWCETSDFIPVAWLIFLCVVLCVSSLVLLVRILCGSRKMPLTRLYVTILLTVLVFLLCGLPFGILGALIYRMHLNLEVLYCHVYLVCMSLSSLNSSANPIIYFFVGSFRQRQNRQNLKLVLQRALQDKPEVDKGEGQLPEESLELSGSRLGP
T1 sequence (Q96LB0 whole entry): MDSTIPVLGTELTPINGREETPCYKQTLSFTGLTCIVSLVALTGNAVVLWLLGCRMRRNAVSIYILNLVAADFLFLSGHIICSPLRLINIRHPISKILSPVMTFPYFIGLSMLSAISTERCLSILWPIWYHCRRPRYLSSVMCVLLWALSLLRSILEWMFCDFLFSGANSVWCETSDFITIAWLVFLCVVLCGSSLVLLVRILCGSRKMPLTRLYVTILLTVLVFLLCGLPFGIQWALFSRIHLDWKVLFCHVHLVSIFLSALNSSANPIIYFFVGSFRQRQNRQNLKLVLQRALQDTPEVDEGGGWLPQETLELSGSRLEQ

Ca2+ response of MRGPRX3 HEK cells [1]: robust Ca^2+ response
Compound: hBD3: synthetic human Beta-defensin 3, antimicrobial peptide (GIINTLQKYYCRVRGGRCAVLSCLPKEEQIGKCSTRGRKCCRRKK; ends and bridges not checked; cysteine pairing not given here)
percentage of keratinocytes that responded ([2]; primary human keratinocytes after MRGPRX3 siRNA knock down): < 20%
percentage of keratinocytes that responded ([2]; primary human keratinocytes, control): > 80%

activation of MrgprA6 [3]: strongly activated
Compound: mBD14: mouse Beta-Defensin-14, mouse homologue of hBD3 (FLPKTLRKFFCRIRGGRCAVLNCLGKEEQIGRCSNSGRKCCRKKK; ends and bridges not checked; cysteine pairing not given here)
response of MrgprA1, A4, A12, B3, and B6 [4]: did not show any response

EC50 [5]: ~49 µM
EC50 [6]: 146 µM
Kd [7]: 92.9 ± 15 µM
EC50 [10]: ~3 µM and 2 µM
EC50 [11]: 61.9 µM
Kd [12]: 54.4 ± 13 µM
Compound: C=CC1=C(C)/C(=C/c2[nH]c(Cc3[nH]c(/C=C4\NC(=O)C(C)=C4C=C)c(C)c3CCC(=O)O)c(CCC(=O)O)c2C)NC1=O [bilirubin, bilirubin IXa]
total neurons activated by the compound alone [8]: 7
scratching of Cluster−/− animals less than wild type [9]: approximately 75%
